Laboratory results published in patent US8455497B2, “Inhibitors of aspartyl protease” (Vertex Pharmaceuticals Incorporated, priority 1999, dated 2013).

Columns and labels:
HIV-1 (strain IIIB) = experiment: Antiviral activity assay in MT4 cells (propidium iodide based); format: cell-based; conditions: Human immunodeficiency virus 1, IIIB; wild type HIV-1 virus, MT4 cells; read-out: Wildtype virus - IC50
Procedure, shortened: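 MT4 cells infected with HIV-1 IIIB (MOI 100×TCID50, 1 hr, 37°C), diluted 6-fold into wells with serially diluted compound, incubated 5 days. Cells lysed with Nonidet-40; DNA content per well estimated by propidium iodide staining as the viability read-out, with mock-infected controls.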

[1] = system: D545701-14 multi protease inhibitor resistant virus; experiment: Anti-viral activity against resistant virus D545701-14 in MT4 cells; format: cell-based, HIV-1; conditions: Human immunodeficiency virus 1, MT4, read-out: D545701-14 mutant - IC50, D545701-14 multi protease inhibitor resistant virus, MT4 cells
[2] = system: EP13 multi protease inhibitor resistant virus; experiment: Anti-viral activity against resistant virus EP13 in MT4 cells; format: cell-based, HIV-1; conditions: Human immunodeficiency virus 1, MT4, read-out: EP13 mutant IC50, EP13 multi protease inhibitor resistant virus, MT4 cells
Procedure, shortened: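 MT4 cells infected for 1 h at 37 °C, MOI 100×TCID50, then diluted 6-fold onto pre-diluted compound and cultured 5 days (5% CO2). Viable-cell DNA content estimated by propidium iodide. EP13 carries protease mutations M46I, L63P, A71V, V82F/L, I84V, no RT mutations.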

`CC(C)CN(C[C@@H](O)[C@H](Cc1ccc(OCc2ccc3ccccc3c2)cc1)NC(=O)O[C@H]1CO[C@H]2OCC[C@H]21)S(=O)(=O)c1ccc2c(c1)OCO2` [Compound 376, (3R,3aS,6aR)-hexahydrofuro[2,3-b]furan-3-yl (1S,2R)-3-[(1,3-benzodioxol-5-ylsulfonyl)(isobutyl)amino]-2-hydroxy-1-[4-(2-naphthylmethoxy)benzyl]propylcarbamate] showed an IC50 (HIV-1 (strain IIIB)) of 1 to 10 nM, an IC50 [1] of 10 to 100 nM and an IC50 [2] of 10 to 100 nM.
In the case of `Cc1cccc(COc2ccc(C[C@H](NC(=O)O[C@H]3CO[C@H]4OCC[C@H]43)[C@H](O)CN(CC(C)C)S(=O)(=O)c3ccc4c(c3)OCO4)cc2)c1` [Compound 377, (3R,3aS,6aR)-hexahydrofuro[2,3-b]furan-3-yl (1S,2R)-3-[(1,3-benzodioxol-5-ylsulfonyl)(isobutyl)amino]-2-hydroxy-1-{4-[(3-methylbenzyl)oxy]benzyl}propylcarbamate], the IC50 (HIV-1 (strain IIIB)) is reported as 1 to 10 nM, the IC50 [1] is reported as 10 to 100 nM and the IC50 [2] is reported as 1 to 10 nM.
In the case of `CC(C)CN(C[C@@H](O)[C@H](Cc1ccc(OCc2cccc(F)c2)cc1)NC(=O)O[C@H]1CO[C@H]2OCC[C@H]21)S(=O)(=O)c1ccc2c(c1)OCO2` [Compound 378, (3R,3aS,6aR)-hexahydrofuro[2,3-b]furan-3-yl (1S,2R)-3-[(1,3-benzodioxol-5-ylsulfonyl)(isobutyl)amino]-1-{4-[(3-fluorobenzyl)oxy]benzyl}-2-hydroxypropylcarbamate], the IC50 (HIV-1 (strain IIIB)) is reported as 1 to 10 nM, the IC50 [1] is reported as 10 to 100 nM and the IC50 [2] is reported as 1 to 10 nM.
`CC(C)CN(C[C@@H](O)[C@H](Cc1ccc(OCc2ccc(F)c(F)c2)cc1)NC(=O)O[C@H]1CO[C@H]2OCC[C@H]21)S(=O)(=O)c1ccc2c(c1)OCO2` [Compound 379, (3R,3aS,6aR)-hexahydrofuro[2,3-b]furan-3-yl (1S,2R)-3[(1,3-benzodioxol-5-ylsulfonyl)(isobutyl)amino]-1-{4-[(3,4-difluorobenzyl)oxy]benzyl}-2-hydroxypropylcarbamate] was tested, and the IC50 (HIV-1 (strain IIIB)) was 1 to 10 nM, the IC50 [1] was 1 to 10 nM and the IC50 [2] was 1 to 10 nM.
Work on `CC(C)CN(C[C@@H](O)[C@H](Cc1ccc(OCc2cc(F)cc(F)c2)cc1)NC(=O)O[C@H]1CO[C@H]2OCC[C@H]21)S(=O)(=O)c1ccc2c(c1)OCO2` [Compound 380, (3R,3aS,6aR)-hexahydrofuro[2,3-b]furan-3-yl (1S,2R)-3-[(1,3-benzodioxol-5-ylsulfonyl)(isobutyl)amino]-1-{4-[(3,5-difluorobenzyl)oxy]benzyl}-2-hydroxypropylcarbamate] yielded an IC50 (HIV-1 (strain IIIB)) of 1 to 10 nM, an IC50 [1] of 10 to 100 nM and an IC50 [2] of 1 to 10 nM.
`CC(C)CN(C[C@@H](O)[C@H](Cc1ccc(OCc2ccc(C#N)cc2)cc1)NC(=O)O[C@H]1CO[C@H]2OCC[C@H]21)S(=O)(=O)c1ccc2c(c1)OCO2` [Compound 381, (3R,3aS,6aR)-hexahydrofuro[2,3-b]furan-3-yl (1S,2R)-3-[(1,3-benzodioxol-5-ylsulfonyl)(isobutyl)amino]-1-{4-[(4-cyanobenzyl)oxy]benzyl}-2-hydroxypropylcarbamate] was tested, and the IC50 (HIV-1 (strain IIIB)) was 1 to 10 nM, the IC50 [1] was 1 to 10 nM and the IC50 [2] was 1 to 10 nM.
Work on `CC(C)CN(C[C@@H](O)[C@H](Cc1ccc(OCc2ccccc2C#N)cc1)NC(=O)O[C@H]1CO[C@H]2OCC[C@H]21)S(=O)(=O)c1ccc2c(c1)OCO2` [Compound 382, (3R,3aS,6aR)-hexahydrofuro[2,3-b]furan-3-yl (1S,2R)-3-[(1,3-benzodioxol-5-ylsulfonyl)(isobutyl)amino]-1-{4-[(2-cyanobenzyl)oxy]benzyl}-2-hydroxypropylcarbamate] yielded an IC50 (HIV-1 (strain IIIB)) of 1 to 10 nM, an IC50 [1] of 1 to 10 nM and an IC50 [2] of 1 to 10 nM.
Molecule `CC(C)CN(C[C@@H](O)[C@H](Cc1ccc(OCc2cccc([N+](=O)[O-])c2)cc1)NC(=O)O[C@H]1CO[C@H]2OCC[C@H]21)S(=O)(=O)c1ccc2c(c1)OCO2` [Compound 384, (3R,3aS,6aR)-hexahydrofuro[2,3-b]furan-3-yl (1S,2R)-3-[(1,3-benzodioxol-5-ylsulfonyl)(isobutyl)amino]-2-hydroxy-1-{4-[(3-nitrobenzyl)oxy]benzyl}propylcarbamate] has an IC50 (HIV-1 (strain IIIB)) of 1 to 10 nM, an IC50 [1] of 1 to 10 nM and an IC50 [2] of 1 to 10 nM.
For `Cc1noc(C)c1COc1ccc(C[C@H](NC(=O)O[C@H]2CO[C@H]3OCC[C@H]32)[C@H](O)CN(CC(C)C)S(=O)(=O)c2ccc3c(c2)OCO3)cc1` [Compound 385, (3R,3aS,6aR)-hexahydrofuro[2,3-b]furan-3-yl (1S,2R)-3-[(1,3-benzodioxol-5-ylsulfonyl)(isobutyl)amino]-1-{4-[(3,5-dimethyl-4-isoxazolyl)methoxy]benzyl}-2-hydroxypropylcarbamate], the IC50 (HIV-1 (strain IIIB)) was 1 to 10 nM, the IC50 [1] was 10 to 100 nM and the IC50 [2] was 1 to 10 nM.
`CC(C)CN(C[C@@H](O)[C@H](Cc1ccc(OCc2nnsc2Cl)cc1)NC(=O)O[C@H]1CO[C@H]2OCC[C@H]21)S(=O)(=O)c1ccc2c(c1)OCO2` [Compound 386, (3R,3aS,6aR)-hexahydrofuro[2,3-b]furan-3-yl (1S,2R)-3-[(1,3-benzodioxol-5-ylsulfonyl)(isobutyl)amino]-1-{4-[(5-chloro-1,2,3-thiadiazol-4-yl)methoxy]benzyl}-2-hydroxypropylcarbamate] was tested, and the IC50 (HIV-1 (strain IIIB)) was 1 to 10 nM, the IC50 [1] was 10 to 100 nM and the IC50 [2] was 1 to 10 nM.
Molecule `CC(C)CN(C[C@@H](O)[C@H](Cc1ccc(OCc2csc3ccccc23)cc1)NC(=O)O[C@H]1CO[C@H]2OCC[C@H]21)S(=O)(=O)c1ccc2c(c1)OCO2` [Compound 387, (3R,3aS,6aR)-hexahydrofuro[2,3-b]furan-3-yl (1S,2R)-3-[(1,3-benzodioxol-5-ylsulfonyl)(isobutyl)amino]-1-[4-(1-benzothien-3-ylmethoxy)benzyl]-2-hydroxypropylcarbamate] has an IC50 (HIV-1 (strain IIIB)) of 1 to 10 nM, an IC50 [1] of 1 to 10 nM and an IC50 [2] of 1 to 10 nM.
With `CC(C)CN(C[C@@H](O)[C@H](Cc1ccc(OCc2ccccc2CS(=O)(=O)c2ccccc2)cc1)NC(=O)O[C@H]1CO[C@H]2OCC[C@H]21)S(=O)(=O)c1ccc2c(c1)OCO2` [Compound 388, (3R,3aS,6aR)-hexahydrofuro[2,3-b]furan-3-yl (1S,2R)-3-[(1,3-benzodioxol-5-ylsulfonyl)(isobutyl)amino]-2-hydroxy-1-[4-{(2-[(phenylsulfonyl)methyl]benzyl}oxy)benzyl]propylcarbamate] the IC50 (HIV-1 (strain IIIB)) was 1 to 10 nM, the IC50 [1] was 1 to 10 nM and the IC50 [2] was 1 to 10 nM.
`Cc1noc(C)c1-c1nc(COc2ccc(C[C@H](NC(=O)O[C@H]3CO[C@H]4OCC[C@H]43)[C@H](O)CN(CC(C)C)S(=O)(=O)c3ccc4c(c3)OCO4)cc2)no1` [Compound 389, (3R,3aS,6aR)-hexahydrofuro[2,3-b]furan-3-yl (1S,2R)-3-[(1,3-benzodioxol-5-ylsulfonyl)(isobutyl)amino]-1-(4-{[5-(3,5-dimethyl-4-isoxazolyl)-1,2,4-oxadiazol-3-yl]methoxy}benzyl)-2-hydroxypropylcarbamate] showed an IC50 (HIV-1 (strain IIIB)) of 1 to 10 nM, an IC50 [1] of 1 to 10 nM and an IC50 [2] of 1 to 10 nM.
`COc1ccc(-c2nc(COc3ccc(C[C@H](NC(=O)O[C@H]4CO[C@H]5OCC[C@H]54)[C@H](O)CN(CC(C)C)S(=O)(=O)c4ccc5c(c4)OCO5)cc3)no2)cc1` [Compound 391, (3R,3aS,6aR)-hexahydrofuro[2,3-b]furan-3-yl (1S,2R)-3-[(1,3-benzodioxol-5-ylsulfonyl)(isobutyl)amino]-2-hydroxy-1-(4-{[5-(4-methoxyphenyl)-1,2,4-oxadiazol-3-yl]methoxy}benzyl)propylcarbamate] showed an IC50 (HIV-1 (strain IIIB)) of 1 to 10 nM, an IC50 [1] of 1 to 10 nM and an IC50 [2] of 1 to 10 nM.
With `CC(C)CN(C[C@@H](O)[C@H](Cc1ccc(OCc2ccc(-c3ccccc3C#N)cc2)cc1)NC(=O)O[C@H]1CO[C@H]2OCC[C@H]21)S(=O)(=O)c1ccc2c(c1)OCO2` [Compound 392, (3R,3aS,6aR)-hexahydrofuro[2,3-b]furan-3-yl (1S,2R)-3-[(1,3-benzodioxol-5-ylsulfonyl)(isobutyl)amino]-1-{4-[(2′-cyano[1,1-biphenyl]-4-yl)methoxy]benzyl}-2-hydroxypropylcarbamate] the IC50 (HIV-1 (strain IIIB)) was 1 to 10 nM, the IC50 [1] was 1 to 10 nM and the IC50 [2] was 1 to 10 nM.
Work on `CC(C)CN(C[C@@H](O)[C@H](Cc1ccc(OCC#N)cc1)NC(=O)O[C@H]1CO[C@H]2OCC[C@H]21)S(=O)(=O)c1ccc2c(c1)OCO2` [Compound 393, (3R,3aS,6aR)-hexahydrofuro[2,3-b]furan-3-yl (1S,2R)-3-[(1,3-benzodioxol-5-ylsulfonyl)(isobutyl)amino]-1-[4-(cyanomethoxy)benzyl]-2-hydroxypropylcarbamate] yielded an IC50 (HIV-1 (strain IIIB)) of 10 to 100 nM, an IC50 [1] of 10 to 100 nM and an IC50 [2] of 10 to 100 nM.
`O=C(N[C@@H](Cc1ccc(OCc2ccccc2)cc1)[C@H](O)CN(CC1CCCC1)S(=O)(=O)c1ccc2c(c1)OCO2)O[C@H]1CO[C@H]2OCC[C@H]21` [Compound 395, (3R,3aS,6aR)-hexahydrofuro[2,3-b]furan-3-yl (1S,2R)-3-[(1,3-benzodioxol-5-ylsulfonyl) (cyclopentylmethyl)amino]-1-[4-(benzyloxy)benzyl]-2-hydroxypropylcarbamate] showed an IC50 (HIV-1 (strain IIIB)) of 1 to 10 nM, an IC50 [1] of 1 to 10 nM and an IC50 [2] of 1 to 10 nM.
Work on `N#CCOc1ccc(C[C@H](NC(=O)O[C@H]2CO[C@H]3OCC[C@H]32)[C@H](O)CN(CC2CCCC2)S(=O)(=O)c2ccc3c(c2)OCO3)cc1` [Compound 397, (3R,3aS,6aR)-hexahydrofuro[2,3-b]furan-3-yl (1S,2R)-3-[(1,3-benzodioxol-5-ylsulfonyl)(cyclopentylmethyl)amino]-1-[4-(cyanomethoxy)benzyl]-2-hydroxypropylcarbamate] yielded an IC50 (HIV-1 (strain IIIB)) of 10 to 100 nM, an IC50 [1] of 1 to 10 nM and an IC50 [2] of 1 to 10 nM.
